According to patent US20090149440A1, “NOVEL PYRIDONECARBOXYLIC ACID DERIVATIVES OR SALTS THEREOF” (priority 2004, published 2009):
≈ marks a conversion by molar mass, not a printed value.

Experiments:
female ICR mice = assay: Phototoxicity test: ear abnormalities after UV irradiation; format: in vivo; parameters: key to Phototoxicity score: normal (0 point); slight erythema (score 1); medium erythema (score 2); serious erythema or edema (score 3); settings: 40 mg/10 mL/kg intravenously, UV 320 to 400 nm for four hours
Procedure: Each test compound was intravenously administered (40 mg/10 mL/kg) to female ICR mice (5- to 6-weeks old), and the mice were irradiated with UV-rays (320 to 400 nm, 1.8 mW/cm^2/sec) for four hours. Abnormalities induced in the ear of each mouse were observed immediately after (0 hour), 24 hours after, and 48 hours after the irradiation. The abnormality was evaluated according to the following criteria: normal (0 point), slight erythema (score 1), medium erythema (score 2), and serious erythema or edema (score 3).

MRSA W44 = assay: Antibacterial activity, minimum inhibitory concentration (standard method of the Japanese Society of Chemotherapy); format: cell-based; settings: Staphylococcus aureus
Procedure: (§1) Minimum inhibitory concentration (MIC: μg/mL) of the compounds shown in Table 1 was determined according to the standard method of the Japanese Society of Chemotherapy (CHEMOTHERAPY 29(1), 76, 1981).

M. luteus IFO12708 = assay: as above; format: cell-based; settings: Micrococcus luteus
Procedure: as §1

S. haemolytlcus 67 = assay: as above; format: cell-based
Procedure: as §1

P. mirabilis IFO3849 = assay: as above; format: cell-based; settings: Proteus mirabilis
Procedure: as §1

human serum proteins = assay: Binding rate to proteins by ultrafiltration method; format: in vitro ADME; settings: 5 μg/mL, 37° C. for 30 minutes
Procedure: Binding rate to proteins of the compounds shown in Table 3 was determined by ultrafiltration method. Specifically, a 0.5 mg/mL DMSO solution of each compound was diluted with human serum or a 0.4% phosphate buffer (pH: 7.4 containing 0.5% NaCl) to thereby prepare a 5 μg/mL solution. The human serum solution was incubated at 37° C. for 30 minutes and centrifugally filtrated through a filter (pore size: 0.22 μm). A portion of the serum filtrate and the phosphate buffer solution were applied to an HPLC system, and the peak area of the compound was measured. Binding rate of each compound to human serum proteins was calculated by the following equation 1: Binding rate (%)=(A−B)×100/A (equation 1) A: Peak area (in phosphate buffer) B: Peak area (in serum filtrate)

[1] = Pharmacokinetics: absorbability after oral administration, serum level; format: in vivo, dogs; settings: for Cmax / Tmax / half-life / AUC: dog, male beagle dogs, fasted, 10 mg/kg oral, 0.5% methylcellulose suspension, serum; for AUC: read-out: AUCO to 8 h
Procedure: Absorbability of the compounds shown in Table 4 was investigated in dogs. Specifically, a 0.5% methylcellulose suspension of each test compound (10 mg/kg) was forcedly orally administered to 2- to 4-years old male beagle dogs which had been fasted for 16 to 17 hours. The blood was collected from each dog at 0.25, 0.5, 1, 2, 4, 6, 8, and 24 hours after the administration, and the serum level of the test compound was determined to evaluate absorbability of the compound.

## CC(C)NC1CN(c2c(F)cc3c(=O)c(C(=O)O)cn(-c4nc(N)c(F)cc4F)c3c2Br)C1.Cl
other
  melting point: ≥ 210 °C (dec.)

## CC(C)NC1CN(c2c(F)cc3c(=O)c(C(=O)O)cn(-c4nc(N)c(F)cc4F)c3c2Br)C1 [compound 1, 1-(6-Amino-3,5-difluoropyridin-2-yl)-8-bromo-6-fluoro-7-(3-isopropylaminoazetidin-1-yl)-4-oxo-1,4-dihydroquinolin-3-carboxylic acid]
Female ICR mice; 0 hour after irradiation
  Phototoxicity incidence: 0/3
  Phototoxicity score: 0
Female ICR mice; 24 hours after irradiation
  Phototoxicity incidence: 0/3
  Phototoxicity score: 0
Female ICR mice; 48 hours after irradiation
  Phototoxicity incidence: 0/3
  Phototoxicity score: 0
MRSA W44
  MIC: 0.03 µg/mL (≈ 0.057 µM)
M. luteus IFO12708
  MIC: 0.12 µg/mL (≈ 0.228 µM)
S. haemolytlcus 67
  MIC: 4 µg/mL (≈ 7.6 µM)
P. mirabilis IFO3849
  MIC: 0.25 µg/mL (≈ 0.475 µM)
Human serum proteins
  Binding rate to proteins: 64.0%

## CNC1CN(c2c(F)cc3c(=O)c(C(=O)O)cn(-c4nc(N)c(F)cc4F)c3c2Br)C1 [compound 1, 1-(6-amino-3,5-difluoropyridin-2-yl)-8-bromo-6-fluoro-7-(3-methylaminoazetidin-1-yl)-4-oxo-1,4-dihydroquinolin-3-carboxylic acid]
Female ICR mice; 0 hour after irradiation
  Phototoxicity incidence: 0/3
  Phototoxicity score: 0
Female ICR mice; 24 hours after irradiation
  Phototoxicity incidence: 0/3
  Phototoxicity score: 0
Female ICR mice; 48 hours after irradiation
  Phototoxicity incidence: 0/3
  Phototoxicity score: 0
MRSA W44
  MIC: 0.06 µg/mL (≈ 0.12 µM)
M. luteus IFO12708
  MIC: 0.25 µg/mL (≈ 0.502 µM)
S. haemolytlcus 67
  MIC: 8 µg/mL (≈ 16.1 µM)
P. mirabilis IFO3849
  MIC: 0.5 µg/mL (≈ 1 µM)
Human serum proteins
  Binding rate to proteins: 49.0%

## CC(C)NC1CN(c2c(F)cc3c(=O)c(C(=O)O)cn(-c4nc(N)c(F)cc4F)c3c2Cl)C1 [compound 2, 1-(6-Amino-3,5-difluoropyridin-2-yl)-8-chloro-6-fluoro-7-(3-isopropylaminoazetidin-1-yl)-4-oxo-1,4-dihydroquinolin-3-carboxylic acid]
other
  melting point: ≥ 205 °C (dec.)

## CCNC1CN(c2c(F)cc3c(=O)c(C(=O)O)cn(-c4nc(N)c(F)cc4F)c3c2Br)C1 [compound 2, 1-(6-amino-3,5-difluoropyridin-2-yl) 8-bromo-7-(3-ethylaminoazetidin-1-yl)-6-fluoro-4-oxo-1,4-dihydroquinolin-3-carboxylic acid]
Female ICR mice; 0 hour after irradiation
  Phototoxicity incidence: 0/3
  Phototoxicity score: 0
Female ICR mice; 24 hours after irradiation
  Phototoxicity incidence: 0/3
  Phototoxicity score: 0
Female ICR mice; 48 hours after irradiation
  Phototoxicity incidence: 0/3
  Phototoxicity score: 0
MRSA W44
  MIC: 0.06 µg/mL (≈ 0.117 µM)
M. luteus IFO12708
  MIC: 0.25 µg/mL (≈ 0.488 µM)
S. haemolytlcus 67
  MIC: 8 µg/mL (≈ 15.6 µM)
P. mirabilis IFO3849
  MIC: 0.25 µg/mL (≈ 0.488 µM)
Human serum proteins
  Binding rate to proteins: 62.8%

## CCc1c(N2CC(NC(C)C)C2)c(F)cc2c(=O)c(C(=O)O)cn(-c3nc(N)c(F)cc3F)c12 [compound 3, 1-(6-Amino-3,5-difluoropyridin-2-yl)-6-fluoro-7-(3-isopropylaminoazetidin-1-yl)-8-ethyl-4-oxo-1,4-dihydroquinolin-3-carboxylic acid]
Human serum proteins
  Binding rate to proteins: 44.3%
other
  melting point: ≥ 238 °C (dec.)

## CNC1CN(c2c(F)cc3c(=O)c(C(=O)O)cn(-c4nc(N)c(F)cc4F)c3c2Br)C1.O=C(O)/C=C\C(=O)O [compound 3, 1-(6-amino-3,5-difluoropyridin-2-yl) 8-bromo-6-fluoro-7-(3-methylaminoazetidin-1-yl)-4-oxo-1,4-dihydroquinolin-3-carboxylic acid maleic acid salt]
[1]
  Cmax: 1490 ng/mL
  Tmax: 1 h
  half-life: 3.2 h
  AUC: 7600 ng·h/mL

## CC(C)(C)NC1CN(c2c(F)cc3c(=O)c(C(=O)O)cn(-c4nc(N)c(F)cc4F)c3c2Br)C1 [compound 4, 1-(6-Amino-3,5-difluoropyridin-2-yl)-8-bromo-7-(3-tert-butylaminoazetidin-1-yl)-6-fluoro-4-oxo-1,4-dihydroquinolin-3-carboxylic acid]
Human serum proteins
  Binding rate to proteins: 44.9%
other
  melting point: ≥ 225 °C (dec.)

## CCNC1CN(c2c(F)cc3c(=O)c(C(=O)O)cn(-c4nc(N)c(F)cc4F)c3c2Br)C1.O=C(O)/C=C\C(=O)O [compound 4, 1-(6-amino-3,5-difluoropyridin-2-yl) 8-bromo-7-(3-ethylaminoazetidin-1-yl)-6-fluoro-4-oxo-1,4-dihydroquinolin-3-carboxylic acid maleic acid salt]
[1]
  Cmax: 3730 ng/mL
  Tmax: 1 h
  half-life: 4.3 h
  AUC: 17500 ng·h/mL

## CC(C)(C)NC1CN(c2c(F)cc3c(=O)c(C(=O)O)cn(-c4nc(N)c(F)cc4F)c3c2Cl)C1 [compound 5, 1-(6-Amino-3,5-difluoropyridin-2-yl)-7-(3-tert-butylaminoazetidin-1-yl)-8-chloro-6-fluoro-4-oxo-1,4-dihydroquinolin-3-carboxylic acid]
other
  melting point: ≥ 250 °C (dec.)

## Cc1c(N2CC(NC(C)(C)C)C2)c(F)cc2c(=O)c(C(=O)O)cn(-c3nc(N)c(F)cc3F)c12 [compound 6, 1-(6-Amino-3,5-difluoropyridin-2-yl)-7-(3-tert-butylaminoazetidin-1-yl)-6-fluoro-8-methyl-4-oxo-1,4-dihydroquinolin-3-carboxylic acid]
Human serum proteins
  Binding rate to proteins: 26.8%
other
  melting point: ≥ 193 °C (dec.)

## CNc1nc(-n2cc(C(=O)O)c(=O)c3cc(F)c(N4CC(NC(C)C)C4)c(C)c32)c(F)cc1F [compound 7, 1-(3,5-Difluoro-6-methylaminopyridin-2-yl)-6-fluoro-7-(3-isopropylaminoazetidin-1-yl)-8-methyl-4-oxo-1,4-dihydroquinolin-3-carboxylic acid]
other
  melting point: ≥ 218 °C (dec.)

## CCNc1nc(-n2cc(C(=O)O)c(=O)c3cc(F)c(N4CC(NC(C)C)C4)c(C)c32)c(F)cc1F [compound 8, 1-(6-Ethylamino-3,5-difluoropyridin-2-yl)-6-fluoro-7-(3-isopropylaminoazetidin-1-yl)-8-methyl-4-oxo-1,4-dihydroquinolin-3-carboxylic acid]
other
  melting point: ≥ 202 °C (dec.)

## CNc1nc(-n2cc(C(=O)O)c(=O)c3cc(F)c(N4CC(NC(C)C)C4)c(Cl)c32)c(F)cc1F [compound 9, 8-Chloro-1-(3,5-difluoro-6-methylaminopyridin-2-yl)-6-fluoro-7-(3-isopropylaminoazetidin-1-yl)-4-oxo-1,4-dihydroquinolin-3-carboxylic acid]
other
  melting point: ≥ 244 °C (dec.)

## CC(C)Nc1nc(-n2cc(C(=O)O)c(=O)c3cc(F)c(N4CC(NC(C)C)C4)c(Cl)c32)c(F)cc1F [compound 10, 8-Chloro-1-(3,5-difluoro-6-isopropylaminopyridin-2-yl)-6-fluoro-7-(3-isopropylaminoazetidin-1-yl)-4-oxo-1,4-dihydroquinolin-3-carboxylic acid]
other
  melting point: ≥ 248 °C (dec.)

## CNc1nc(-n2cc(C(=O)O)c(=O)c3cc(F)c(N4CC(NC(C)C)C4)c(Br)c32)c(F)cc1F [compound 11, 8-Bromo-1-(3,5-difluoro-6-methylaminopyridin-2-yl)-6-fluoro-7-(3-isopropylaminoazetidin-1-yl)-4-oxo-1,4-dihydroquinolin-3-carboxylic acid]
other
  melting point: ≥ 220 °C (dec.)

## CC(C)NC1CN(c2c(F)cc3c(=O)c(C(=O)O)cn(-c4nc(N)c(F)cc4F)c3c2Br)C1.O=C(O)/C=C\C(=O)O [compound 12, 1-(6-amino-3,5-difluoropyridin-2-yl)-8-bromo-6-fluoro-7-(3-isopropylaminoazetidin-1-yl)-4-oxo-1,4-dihydroquinolin-3-carboxylic acid maleic acid salt]
Human serum proteins
  Binding rate to proteins: 64.0%
[1]
  Cmax: 5250 ng/mL
  Tmax: 1 h
  half-life: 5.8 h
  AUC: 30900 ng·h/mL
[1]; dogs, oral, compared with comparative compounds 3 and 4
  Pharmacokinetics (in words): remarkably improved

## CC(C)NC1CN(c2c(F)cc3c(=O)c(C(=O)O)cn(-c4nc(N)c(F)cc4F)c3c2Br)C1.CS(=O)(=O)O [compound 13, 1-(6-Amino-3,5-difluoropyridin-2-yl)-8-bromo-6-fluoro-7-(3-isopropylaminoazetidin-1-yl)-4-oxo-1,4-dihydroquinolin-3-carboxylic acid methanesulfonic acid salt]
other
  melting point: ≥ 224 °C (dec.)
